Our source for the EC50 and AC1.4 values is patent US12441691B2 (Cytokinetics, Inc., priority 2020, dated 2025).

In general, EC50 refers to the concentration giving half of the maximal effect.

The subject of experiment [1] is ankle plantarflexor muscle. Description: Rat isometric ankle plantarflexor muscle force. Particulars: continuous intravenous infusion over sixty minutes, 30 Hz nerve stimulation, estimated EC50 = concentration at which muscle force is 50% of pre-dose maximum tension. It is filed as in vivo, Sprague Dawley rats. From the text:
Female Sprague Dawley rats were placed under a stable anesthetic plane with inhaled isoflurane (1-5%). One incision was made on the mid-thigh region of the right leg to expose the sciatic nerve. To prevent co-contraction of the ankle dorsiflexors, an additional incision was made lateral to the patella to isolate and sever the peroneal nerve. Rats were then placed on a temperature-maintained in situ muscle analysis rig (Aurora Scientific, Model 806C). The knee was immobilized in a clamp between two sharpened screws and the foot was taped to a footplate attached to a force transducer (Aurora Scientific, Ontario, Canada). Stainless steel needle electrodes (0.10 mm) were hooked around the exposed sciatic nerve. Isometric ankle plantarflexor muscle contractile force was assessed with the ankle joint at 90° flexion. A 30 Hz electrical stimulation (under supramaximal voltage conditions) was applied to the nerve and the resulting muscle force was recorded via a servomotor. A pre-dose 30 Hz force response was established as the baseline force. A pre-dose 150 Hz force response was established as the maximum isometric force. Compounds were formulated in 50% polyethylene glycol (PEG): 16% Cavitron: 10% dimethylacetamide (DMA) and administered by continuous intravenous infusion over a sixty minute period. The muscle force response to compound was measured every two minutes over the dosing period. Data were reported as an estimated EC50 value, which is the concentration at which muscle force is 50% of the pre-dose maximum tension. In Table 10, “Example Compound” refers to the compound labeled with the same number in Table 2.

The subject of experiment [2] is rabbit skeletal myofibrils (fast skeletal myofibrils). Description: Activation of fast skeletal myofibrils (PUMA assay, AC1.4). It is filed as biochemical. As to conditions: calcium at pCa25, AC1.4 = concentration at which the compound increased the enzymatic activity. In outline:
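In 12 mM PIPES pH 6.8 with 2 mM MgCl2 and 1 mM DTT, Triton-washed rabbit skeletal myofibrils were run at the pCa25 calcium level. Myosin-made ADP was recycled through a PK/LDH coupled system; NADH loss read at 340 nm.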

As for `CC[C@H](C)[C@H]1C(=O)Nc2ccccc2CN1C(=O)CC(N)=O` [Compound 1, 3-((S)-3-((S)-sec-Butyl)-2-oxo-1,2,3,5-tetrahydro-4H-benzo[e][1,4]diazepin-4-yl)-3-oxopropanamide], the EC50 in experiment [1] was 26.2 µM. For the same molecule, the AC1.4 in experiment [2] came out at 0.91 µM. In the same order, the values of `CC[C@H](C)[C@H]1C(=O)Nc2ccccc2CN1/C(N)=N/C#N` [Compound 2, (S,E)-3-((S)-sec-Butyl)-N′-cyano-2-oxo-1,2,3,5-tetrahydro-4H-benzo[e][1,4]diazepine-4-carboximidamide] are 19.1 µM and 0.08 µM.

With `CC[C@H](C)[C@H]1C(=O)Nc2ccccc2CN1CC(N)=O` [Compound 6, 2-((S)-3-((S)-sec-Butyl)-2-oxo-1,2,3,5-tetrahydro-4H-benzo[e][1,4]diazepin-4-yl)acetamide], the concentration for a half-maximal effect (EC50) in experiment [1] is 20.3 µM. In addition, in experiment [2], the AC1.4 was 0.89 µM.

On to `CC[C@H](C)[C@H]1C(=O)Nc2cc(F)ccc2CN1C(=O)NC1CCN(CCO)CC1` [Compound 356, (S)-3-((S)-sec-butyl)-8-fluoro-N-(1-(2-hydroxyethyl)piperidin-4-yl)-2-oxo-1,2,3,5-tetrahydro-4H-benzo[e][1,4]diazepine-4-carboxamide], for which, in experiment [2], the AC1.4 was determined as 0.24 µM.

Regarding `CC[C@H](C)[C@H]1C(=O)Nc2cc(F)ccc2CN1C(=O)N[C@H]1CCN(C)C1` [Compound 358, (S)-3-((S)-sec-butyl)-8-fluoro-N-((S)-1-methylpyrrolidin-3-yl)-2-oxo-1,2,3,5-tetrahydro-4H-benzo[e][1,4]diazepine-4-carboxamide], the AC1.4 in experiment [2] was determined as 0.40 µM. Take `CC[C@H](C)[C@H]1C(=O)Nc2cc(F)ccc2CN1C(=O)N1CC[C@H](O)C1` [Compound 359, (S)-3-((S)-sec-butyl)-8-fluoro-4-((S)-3-hydroxypyrrolidine-1-carbonyl)-1,3,4,5-tetrahydro-2H-benzo[e][1,4]diazepin-2-one]: the AC1.4 in experiment [2] was found to be 0.77 µM. On the same count and under the same terms, the value for `CC[C@H](C)[C@H]1C(=O)Nc2cc(F)ccc2CN1C(=O)NC1CCN(C2COC2)CC1` [Compound 360, (S)-3-((S)-sec-butyl)-8-fluoro-N-(1-(oxetan-3-yl)piperidin-4-yl)-2-oxo-1,2,3,5-tetrahydro-4H-benzo[e][1,4]diazepine-4-carboxamide] was 0.37 µM; that for `CC[C@H](C)[C@H]1C(=O)Nc2cncc(F)c2CN1C(C)=O` [Compound 361, (S)-4-acetyl-3-((S)-sec-butyl)-6-fluoro-1,3,4,5-tetrahydro-2H-pyrido[3,4-e][1,4]diazepin-2-one] was 1.62 µM; that for `CC[C@H](C)[C@H]1C(=O)Nc2cncc(F)c2CN1C(=O)CO` [Compound 362, (S)-3-((S)-sec-butyl)-6-fluoro-4-(2-hydroxyacetyl)-1,3,4,5-tetrahydro-2H-pyrido[3,4-e][1,4]diazepin-2-one] was 1.68 µM.

Take `CC[C@H](C)[C@H]1C(=O)Nc2cncc(F)c2CN1C(=O)COC` [Compound 363, (S)-3-((S)-sec-butyl)-6-fluoro-4-(2-methoxyacetyl)-1,3,4,5-tetrahydro-2H-pyrido[3,4-e][1,4]diazepin-2-one]: in experiment [2], the AC1.4 was 2.60 µM.

Take `CC[C@H](C)[C@H]1C(=O)Nc2cncc(F)c2CN1C(=O)OC` [Compound 364, methyl (S)-3-((S)-sec-butyl)-6-fluoro-2-oxo-1,2,3,5-tetrahydro-4H-pyrido[3,4-e][1,4]diazepine-4-carboxylate]: the AC1.4 in experiment [2] is 3.31 µM. On the same count and under the same terms, the value for `CC[C@H](C)[C@H]1C(=O)Nc2cncc(F)c2CN1/C(N)=N/C#N` [Compound 365, (S,E)-3-((S)-sec-butyl)-N′-cyano-6-fluoro-2-oxo-1,2,3,5-tetrahydro-4H-pyrido[3,4-e][1,4]diazepine-4-carboximidamide] was 0.19 µM; that for `CC[C@H](C)[C@H]1C(=O)Nc2cncc(F)c2CN1c1c(N)c(=O)c1=O` [Compound 366, 3-amino-4-((S)-3-((S)-sec-butyl)-6-fluoro-2-oxo-1,2,3,5-tetrahydro-4H-pyrido[3,4-e][1,4]diazepin-4-yl)cyclobut-3-ene-1,2-dione] was 0.21 µM; that for `CC[C@H](C)[C@H]1C(=O)Nc2cncc(F)c2CN1C(=O)NC` [Compound 367, (S)-3-((S)-sec-butyl)-6-fluoro-N-methyl-2-oxo-1,2,3,5-tetrahydro-4H-pyrido[3,4-e][1,4]diazepine-4-carboxamide] was 1.05 µM. Still for that read-out and setting: the value for `CC[C@H](C)[C@H]1C(=O)Nc2cncc(F)c2CN1C(=O)Nc1ccn(C)n1` [Compound 368, (S)-3-((S)-sec-butyl)-6-fluoro-N-(1-methyl-1H-pyrazol-3-yl)-2-oxo-1,2,3,5-tetrahydro-4H-pyrido[3,4-e][1,4]diazepine-4-carboxamide] was 0.41 µM. On the same count and under the same terms, the value for `CC[C@H](C)[C@H]1C(=O)Nc2cncc(F)c2CN1C(=O)Nc1cc[nH]n1` [Compound 369] was 0.24 µM; that for `CC[C@H](C)[C@H]1C(=O)Nc2cncc(F)c2CN1C(=O)N1CC(O)C1` [Compound 370, (S)-3-((S)-sec-butyl)-6-fluoro-4-(3-hydroxyazetidine-1-carbonyl)-1,3,4,5-tetrahydro-2H-pyrido[3,4-e][1,4]diazepin-2-one] was 0.88 µM; that for `CC[C@H](C)[C@H]1C(=O)Nc2cncc(F)c2CN1C(=O)COCc1ccccc1` [Compound 371, (S)-4-(2-(benzyloxy)acetyl)-3-((S)-sec-butyl)-6-fluoro-1,3,4,5-tetrahydro-2H-pyrido[3,4-e][1,4]diazepin-2-one] was 0.50 µM. In the case of `CC[C@H](C)[C@H]1C(=O)Nc2ccccc2CN1c1c(N2CCOCC2)c(=O)c1=O` [Compound 372, 3-((S)-3-((S)-sec-butyl)-2-oxo-1,2,3,5-tetrahydro-4H-benzo[e][1,4]diazepin-4-yl)-4-morpholinocyclobut-3-ene-1,2-dione], the AC1.4 in experiment [2] came out at 0.18 µM. `CC[C@H](C)[C@H]1C(=O)Nc2cnccc2CN1C(=O)c1cnn(C)c1` [Compound 373, (S)-3-((S)-sec-butyl)-4-(1-methyl-1H-pyrazole-4-carbonyl)-1,3,4,5-tetrahydro-2H-pyrido[3,4-e][1,4]diazepin-2-one]: the AC1.4 in experiment [2] worked out at 0.66 µM.

As to `CC[C@H](C)[C@H]1C(=O)Nc2cnccc2CN1c1c(NCCO)c(=O)c1=O` [Compound 374, 3-((S)-3-((S)-sec-butyl)-2-oxo-1,2,3,5-tetrahydro-4H-pyrido[3,4-e][1,4]diazepin-4-yl)-4-((2-hydroxyethyl)amino)cyclobut-3-ene-1,2-dione], in experiment [2], the AC1.4 came to 0.42 µM. On the same count and under the same terms, the value for `CC[C@H](C)[C@H]1C(=O)Nc2cnccc2CN1c1c(N2CC(O)C2)c(=O)c1=O` [Compound 375, 3-((S)-3-((S)-sec-butyl)-2-oxo-1,2,3,5-tetrahydro-4H-pyrido[3,4-e][1,4]diazepin-4-yl)-4-(3-hydroxyazetidin-1-yl)cyclobut-3-ene-1,2-dione] was 0.26 µM; that for `CC[C@H](C)[C@H]1C(=O)Nc2cnccc2CN1c1c(NC)c(=O)c1=O` [Compound 376, 3-((S)-3-((S)-sec-butyl)-2-oxo-1,2,3,5-tetrahydro-4H-pyrido[3,4-e][1,4]diazepin-4-yl)-4-(methylamino)cyclobut-3-ene-1,2-dione] was 0.18 µM. On the same count and under the same terms, the figure for `CC[C@H](C)[C@H]1C(=O)Nc2cnccc2CN1c1c(N(C)C)c(=O)c1=O` [Compound 377, 3-((S)-3-((S)-sec-butyl)-2-oxo-1,2,3,5-tetrahydro-4H-pyrido[3,4-e][1,4]diazepin-4-yl)-4-(dimethylamino)cyclobut-3-ene-1,2-dione] is 0.29 µM; for `CC[C@H](C)[C@H]1C(=O)Nc2cnccc2CN1c1c(N)c(=O)c1=O` [Compound 378, 3-amino-4-((S)-3-((S)-sec-butyl)-2-oxo-1,2,3,5-tetrahydro-4H-pyrido[3,4-e][1,4]diazepin-4-yl)cyclobut-3-ene-1,2-dione] it is 0.15 µM.

Regarding `CC[C@H](C)[C@H]1C(=O)Nc2cnccc2CN1C(=O)N1CC(O)C1` [Compound 379, (S)-3-((S)-sec-butyl)-4-(3-hydroxyazetidine-1-carbonyl)-1,3,4,5-tetrahydro-2H-pyrido[3,4-e][1,4]diazepin-2-one], in experiment [2], the AC1.4 came to 0.92 µM. On the same count and under the same terms, the figure for `CC[C@H](C)[C@H]1C(=O)Nc2cnccc2N1/C(=N/C#N)Oc1ccccc1` [Compound 380, phenyl (S,Z)-2-((S)-sec-butyl)-N-cyano-3-oxo-3,4-dihydropyrido[3,4-b]pyrazine-1(2H)-carbimidate] is 1.25 µM; for `CC[C@H](C)[C@H]1C(=O)Nc2cnccc2CN1c1c(NCCOC)c(=O)c1=O` [Compound 381, 3-((S)-3-((S)-sec-butyl)-2-oxo-1,2,3,5-tetrahydro-4H-pyrido[3,4-e][1,4]diazepin-4-yl)-4-((2-methoxyethyl)amino)cyclobut-3-ene-1,2-dione] it is 0.48 µM.
